Test results taken from patent US7786141B2 (Vertex Pharmaceuticals Incorporated, priority 2004, dated 2010).

How the values were obtained:
M4 muscarinic receptor = target: T1, M4 muscarinic receptor (Homo sapiens, UniProt P08173); experiment: Functional mobilization of intracellular calcium (FLIPR) in M4-CHO cells; format: cell-based; conditions: M4 receptor, calcium mobilization; for Emax: read-out: M4 Efficacy
T1 construct: expressed in transfected cells; host or cells: CHO (M4-CHO)
T1 sequence (P08173 1-479): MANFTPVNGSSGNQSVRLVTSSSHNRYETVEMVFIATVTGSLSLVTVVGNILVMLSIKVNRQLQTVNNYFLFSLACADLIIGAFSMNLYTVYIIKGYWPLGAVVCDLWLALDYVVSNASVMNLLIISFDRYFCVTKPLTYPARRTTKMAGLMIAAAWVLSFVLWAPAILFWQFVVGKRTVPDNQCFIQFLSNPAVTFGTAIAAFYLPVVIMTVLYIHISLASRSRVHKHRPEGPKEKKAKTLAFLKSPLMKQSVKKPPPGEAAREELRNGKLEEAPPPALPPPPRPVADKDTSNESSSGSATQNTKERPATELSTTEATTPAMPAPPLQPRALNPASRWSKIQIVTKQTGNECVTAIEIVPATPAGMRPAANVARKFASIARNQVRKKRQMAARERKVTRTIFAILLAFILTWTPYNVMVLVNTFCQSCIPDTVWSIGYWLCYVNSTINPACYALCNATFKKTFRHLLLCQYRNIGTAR
Outline: (§1)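 CHO cells stably expressing human M1 or M4 receptor were loaded with Fluo-3 AM (or Calcium 3 dye) in Hepes-buffered saline, pH 7.4, with 1 mM probenecid, 0.5% final DMSO. Agonist mode: compound added directly; antagonist mode: 15 min preincubation before carbachol at EC80. FLIPR fluorescence recorded 60 sec.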

M1 muscarinic receptor = target: T2, M1 muscarinic receptor (Homo sapiens, UniProt P11229); experiment: Functional mobilization of intracellular calcium (FLIPR) in M1-CHO cells; format: cell-based; conditions: M1 receptor, calcium mobilization; for Emax: read-out: M1 Efficacy
T2 construct: expressed in transfected cells; host or cells: CHO (M1-CHO)
T2 sequence (P11229 1-460): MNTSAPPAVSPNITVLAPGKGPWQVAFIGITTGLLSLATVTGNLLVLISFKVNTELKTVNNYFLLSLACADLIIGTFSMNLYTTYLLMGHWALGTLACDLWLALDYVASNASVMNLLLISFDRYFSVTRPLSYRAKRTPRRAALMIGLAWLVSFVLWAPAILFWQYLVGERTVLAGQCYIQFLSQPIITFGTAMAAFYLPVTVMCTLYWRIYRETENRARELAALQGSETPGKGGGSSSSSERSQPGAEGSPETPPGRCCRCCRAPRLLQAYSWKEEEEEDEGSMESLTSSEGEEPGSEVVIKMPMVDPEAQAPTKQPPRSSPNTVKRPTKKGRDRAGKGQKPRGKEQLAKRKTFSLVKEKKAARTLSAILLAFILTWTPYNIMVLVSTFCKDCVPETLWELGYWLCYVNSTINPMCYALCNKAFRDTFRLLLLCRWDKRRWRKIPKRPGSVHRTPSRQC
Outline: as §1

SMILES | M4 Activity (M4 muscarinic receptor) | Emax (M4 muscarinic receptor) [%] | M1 Activity (M1 muscarinic receptor) | Emax (M1 muscarinic receptor) [%] | M4 Efficacy (M4 muscarinic receptor) | M1 Efficacy (M1 muscarinic receptor)
CC(=O)N1CC2(CCN(CC3CCCOC3)CC2)c2cc(F)ccc21 (stereo not drawn) [compound 75] | xx (activity was measured to be between 0.1 μM and 1.0 μM) | 65 to 85 | xxx (activity was measured to be less than 0.1 μM) | < 65 |  | 
COCCOC(=O)N1C2CCC1CC(N1CCC3(CC1)CN(C(C)=O)c1ccc(F)cc13)C2 (stereo not drawn) [compound 76] | xx (activity was measured to be between 0.1 μM and 1.0 μM) | 65 to 85 | xxx (activity was measured to be less than 0.1 μM) | 65 to 85 |  | 
CCOC(=O)N1CCC(N2CCC3(CC2)CN(C(=O)c2ccc(F)cc2)c2ccc(F)cc23)CC1 [compound 77] | xx (activity was measured to be between 0.1 μM and 1.0 μM) | < 65 | xxx (activity was measured to be less than 0.1 μM) | 65 to 85 |  | 
CCOC(=O)N1CCC(N2CCC3(CC2)CN(C(C)=O)c2ccc(-c4ccccc4C)cc23)CC1 [compound 78] | xx (activity was measured to be between 0.1 μM and 1.0 μM) | < 65 | xxx (activity was measured to be less than 0.1 μM) | 65 to 85 |  | 
CCCOC(=O)N1CCC(N2CCC3(CC2)CN(C(C)=O)c2ccc(F)cc23)CC1 [compound 79] | x (activity was measured to be greater than 1.0 μM) | < 65 | xx (activity was measured to be between 0.1 μM and 1.0 μM) | < 65 |  | 
COCCOC(=O)N1CC2(CCN(C3CC4CCC(C3)N4C(=O)O[C@H]3CCOC3)CC2)c2cc(F)ccc21 (stereo partly drawn) [compound 80] | xx (activity was measured to be between 0.1 μM and 1.0 μM) | < 65 | xx (activity was measured to be between 0.1 μM and 1.0 μM) | < 65 |  | 
C#CCOC(=O)N1CCC(N2CCC3(CC2)CN(C(C)=O)c2ccc(C)cc23)CC1 [compound 81] | x (activity was measured to be greater than 1.0 μM) | < 65 | xx (activity was measured to be between 0.1 μM and 1.0 μM) | < 65 |  | 
CC(=O)N1CC2(CCN(CC3CCN(C(=O)O[C@@H]4CCOC4)CC3)CC2)c2cc(F)ccc21 [compound 82] | xx (activity was measured to be between 0.1 μM and 1.0 μM) |  | xxx (activity was measured to be less than 0.1 μM) |  | xx (efficacy was calculated to be between 85% and 65%) | xx (efficacy was calculated to be between 85% and 65%)
CCOC(=O)N1CCC(N2CCC3(CC2)CN(C(C)=O)c2ccc(-c4cccc(F)c4)cc23)CC1 [compound 84] | xx (activity was measured to be between 0.1 μM and 1.0 μM) | 65 to 85 | xxx (activity was measured to be less than 0.1 μM) | 65 to 85 |  | 
Clc1ccc2c(c1)C1(CCN(C3CC4CCC(C4)C3)CC1)CN2 (stereo not drawn) [compound 85] | xx (activity was measured to be between 0.1 μM and 1.0 μM) | 65 to 85 | xxx (activity was measured to be less than 0.1 μM) | 65 to 85 |  | 
CCON=C1CCC(N2CCC3(CC2)CN(C(C)=O)c2ccc(F)cc23)CC1 (stereo not drawn) [compound 86] | x (activity was measured to be greater than 1.0 μM) | < 65 | xxx (activity was measured to be less than 0.1 μM) | 65 to 85 |  | 
O=C(C1CC1)N1CC2(CCN(C3CC4CCC(C3)N4C(=O)O[C@@H]3CCOC3)CC2)c2cc(F)ccc21 (stereo partly drawn) [compound 87] | x (activity was measured to be greater than 1.0 μM) | < 65 | xxx (activity was measured to be less than 0.1 μM) | 65 to 85 |  | 
CCOC(=O)N1C2CCC1CC(N1CCC3(CC1)CN(C(=O)c1ccno1)c1ccc(F)cc13)C2 (stereo not drawn) [compound 88] | xx (activity was measured to be between 0.1 μM and 1.0 μM) | < 65 | xxx (activity was measured to be less than 0.1 μM) | 65 to 85 |  | 
CCOC(=O)N1C2CCC1CC(N1CCC3(CC1)CN(C(=O)OCCOC)c1ccc(F)cc13)C2 (stereo not drawn) [compound 90] | x (activity was measured to be greater than 1.0 μM) | < 65 | xx (activity was measured to be between 0.1 μM and 1.0 μM) | 65 to 85 |  | 
CCCOC(=O)N1CCC(N2CCC3(CC2)CN(C(=O)N(C)C)c2ccc(F)cc23)CC1 [compound 91] | xx (activity was measured to be between 0.1 μM and 1.0 μM) | < 65 | xxx (activity was measured to be less than 0.1 μM) | 65 to 85 |  | 
CCOC(=O)N1CCC(N2CCC3(CC2)CN(C(C)=O)c2ccc(C)cc23)CC1 [compound 92] | xx (activity was measured to be between 0.1 μM and 1.0 μM) | < 65 | xxx (activity was measured to be less than 0.1 μM) | 65 to 85 |  | 
O=C(O[C@@H]1CCOC1)N1CC2(CCN(C3CC4CCC(C3)N4C(=O)O[C@H]3CCOC3)CC2)c2cc(F)ccc21 (stereo partly drawn) [compound 93] | xx (activity was measured to be between 0.1 μM and 1.0 μM) |  | xx (activity was measured to be between 0.1 μM and 1.0 μM) |  | x (efficacy was calculated to be less than 65%) | x (efficacy was calculated to be less than 65%)
CC(=O)N1CC2(CCN(C3CC4CCC(C3)N4C(=O)OC(C)C)CC2)c2cc(F)ccc21 (stereo not drawn) [compound 94] | xx (activity was measured to be between 0.1 μM and 1.0 μM) | < 65 | xxx (activity was measured to be less than 0.1 μM) | < 65 |  | 
COCCOC(=O)N1C2CCC1CC(N1CCC3(CCc4ccccc43)CC1)C2 (stereo not drawn) [compound 95] | xx (activity was measured to be between 0.1 μM and 1.0 μM) | < 65 | xxx (activity was measured to be less than 0.1 μM) | 65 to 85 |  | 
COC(=O)N1CC2(CCN(C3CC4CCC(C3)N4C(=O)O[C@H]3CCOC3)CC2)c2cc(F)ccc21 (stereo partly drawn) [compound 96] | x (activity was measured to be greater than 1.0 μM) | < 65 | xx (activity was measured to be between 0.1 μM and 1.0 μM) | 65 to 85 |  | 
COC(=O)N1CC2(CCN(C3CC4CCC(C3)N4C(=O)OC(C)C)CC2)c2cc(F)ccc21 (stereo not drawn) [compound 97] | x (activity was measured to be greater than 1.0 μM) | < 65 | xxx (activity was measured to be less than 0.1 μM) | 65 to 85 |  | 
CCCOC(=O)N1CCC(CN2CCC3(CC2)CN(C(C)=O)c2ccc(F)cc23)CC1 [compound 98] | xx (activity was measured to be between 0.1 μM and 1.0 μM) | < 65 | xxx (activity was measured to be less than 0.1 μM) | 65 to 85 |  | 
CCOC(=O)N1C2CCC1CC(N1CCC3(CC1)COc1ccc(Cl)cc13)C2 (stereo not drawn) [compound 99] | x (activity was measured to be greater than 1.0 μM) | < 65 | xxx (activity was measured to be less than 0.1 μM) | < 65 |  | 
COc1ccc(OC(=O)N2C3CCC2CC(N2CCC4(CC2)COc2ccc(F)cc24)C3)cc1 (stereo not drawn) [compound 100] | xx (activity was measured to be between 0.1 μM and 1.0 μM) | 65 to 85 | xxx (activity was measured to be less than 0.1 μM) | 65 to 85 |  | 
CC#CCOC(=O)N1CCC(N2CCC3(CC2)CN(C(C)=O)c2ccc(F)cc23)CC1 [compound 102] | xx (activity was measured to be between 0.1 μM and 1.0 μM) | 65 to 85 | xxx (activity was measured to be less than 0.1 μM) | 65 to 85 |  | 
CCOC(=O)N1C2CCC1CC(N1CCC3(CC1)CN(S(C)(=O)=O)c1ccc(F)cc13)C2 (stereo not drawn) [compound 103] | xx (activity was measured to be between 0.1 μM and 1.0 μM) | < 65 | xxx (activity was measured to be less than 0.1 μM) | 65 to 85 |  | 
O=C1CC2(CCN(C[C@H]3C[C@H]4C=C[C@H]3C4)CC2)c2ccccc21 [compound 104] | x (activity was measured to be greater than 1.0 μM) | < 65 | xxx (activity was measured to be less than 0.1 μM) | 65 to 85 |  | 
